# Experimental data taken from patent US7803824B2, “Use of inhibitors of Jun N-terminal kinases to treat glaucoma” (Alcon, Inc., priority 2004, dated 2010).
# Tested on: adult rat retinal ganglion cells (RGC)
# Experiment: Cultured adult rat RGC survival under cytotoxic insults (Example 4)
# Assay type: cell-based
# Settings: 30 min pre-treatment, then 100 μM glutamate for 3 days
# Procedure: Adult Sprague-Dawley rats were euthanized by CO2 asphyxiation. Their eyes were enucleated and the retinas isolated. Retinal cells were treated with of papain solution for 25 min at 37° C., then washed 3 times with 5 mL RGC culture medium (Neurobasal medium with various nutrient supplements+1% fetal calf serum). Retinal cells were dispersed by trituration. Cell suspension was placed onto poly-D-lysine- and laminin-coated 8-well chambered culture slides. The cells were then cultured in 95% air/5% CO2 at 37° C.
# For glutamate-induced toxicity studies, cells were pre-treated with vehicle or the indicated compounds for 30 minutes, followed by 100 μM glutamate for 3 days.
# For trophic factor withdrawal studies, three trophic factors, basic fibroblast growth factor, brain-derived neurotrophic factor, and ciliary neurotrophic factor, were removed from the culture medium. Cells were cultured in this medium with the indicated compounds for 3 days.
# At the end of the incubation period, the cells were fixed and labeled for Thy-1, a RGC marker, by immunocytochemistry. Cell survival was quantified by manually counting Thy-1-positive healthy cells in each well.
smiles,measurement,value
C[C@]12N[C@H](Cc3ccccc31)c1ccccc12 [MK801],"RGC survival, glutamate-induced toxicity (Thy-1-positive healthy cells)",prevented
